The source of these data is US20100113590A1, “ADAM INHIBITOR” (Shiseido Company, Ltd., priority 2007, published 2010).

For the assay, the system named is ADAM. Put plainly: Inhibition of PMA-induced TNF-α release from U937 cells (index of ADAM inhibition), hTNF-α ELISA. To be noted: for Inhibition rate (%): U937 cells, 30 min pretreatment, 10 nM PMA for 6 hours, released hTNF-α by ELISA; for suppressing effect on HB-EGF release: statement in words summarising the screening, suggests inhibition of ADAM activity. The class given is cell-based, human. The method, then: For the ADAM inhibiting effect, the TNF-α which is cut out to be released from the membrane of the U937 cell derived from the human lymphoma through the action of ADAM was used as an index, and the inhibiting effect on the TNF-α release by the agents was assessed. A new ADAM inhibitor was explored by screening different compounds according to the present method.
The U937 cells derived from the human lymphoma were seeded to the 48-well plate adjusting the number of the cells to 1×10^5 cells/0.25 ml and cultured at 37° C. overnight. The medium which contained 5 μg/ml or 30 μg/ml of an ascorbic acid derivative was added and incubated at 37° C. for 30 min. to be pretreated. 10 nM PMA (phorbol ester: 12-O-tetradecanoylphorbol-acetate; Sigma P8139) was then added and cultured at 37° C. for 6 hours. After completion of the treatment, the supernatant of the culture was collected, centrifuged and the cell-free supernatant was cryopreserved at −20° C. The assay of the released hTNF-α was performed using the hTNF-α Duo-Set ELISA kit from R & D Ltd. Each supernatant of the culture was diluted 5-folds with the medium, then […] each was added to the 96-well plate and measured according to the protocol of R & D Ltd. The absorbance at 450-570 nm of each well was measured by the measurement kit and concentrations of the samples were obtained from the standard curve. The inhibition rates were calculated according to the following equation wherein A0 is the absorbance of 0% inhibiting control (the medium containing only PMA), A100 is the absorbance of 100% inhibiting control (only the medium) and AS is the absorbance of the sample.
The inhibition rate (%)=(A0−AS)/(A0−A100)×100
For orientation: ELISA stands for enzyme-linked immunosorbent assay.

Turning to `CCCCCCCCCCCCCCCCCCOC1=C(O)[C@@H]([C@@H](O)CO)OC1=O` [2-O-octadecyl ascorbic acid], the “suppressing effect on HB-EGF release” value was “high suppressing effect”. The “Inhibition rate (%)” value (5 μg/mL) stood at 15.19%. The “Inhibition rate (%)” value (30 μg/mL) was found to be 82.70%.
The matching figures for `CCCCCCCCCCCCOC1=C(O)[C@@H]([C@@H](O)CO)OC1=O` [2-O-dodecyl ascorbic acid]: “high suppressing effect”, 18.25% and 60.07%.
